Laboratory results reported in BigSolDB 2.1.

O=[N+]([O-])c1cccc2c([N+](=O)[O-])cccc12
solubility (mole fraction)
Settings | in acetone | in acetonitrile | in chloroform | in ethanol | in ethyl acetate | in ethylbenzene | in n-propanol | in toluene
273.15 K | 0.000703 | 0.000236 | 0.000629 | 1.99e-05 | 0.000648 | 0.000522 | 2.17e-05 | 0.000683
275.65 K | 0.000762 | 0.000265 | 0.000731 | 2.25e-05 | 0.000699 | 0.000578 | 2.53e-05 | 0.000761
278.15 K | 0.000844 | 0.000296 | 0.000881 | 2.62e-05 | 0.000754 | 0.000638 | 2.96e-05 | 0.000858
280.65 K | 0.000912 | 0.000333 | 0.00102 | 3.1e-05 | 0.000835 | 0.000714 | 3.41e-05 | 0.000958
283.15 K | 0.000991 | 0.000372 | 0.00118 | 3.66e-05 | 0.000923 | 0.000785 | 3.92e-05 | 0.00106
285.65 K | 0.00108 | 0.000415 | 0.00135 | 4.16e-05 | 0.000998 | 0.000863 | 4.45e-05 | 0.00117
288.15 K | 0.00117 | 0.000468 | 0.00153 | 4.81e-05 | 0.00113 | 0.000941 | 5.16e-05 | 0.00129
290.65 K | 0.00126 | 0.00053 | 0.0017 | 5.43e-05 | 0.00123 | 0.00104 | 5.77e-05 | 0.00141
293.15 K | 0.00138 | 0.000585 | 0.00192 | 6.15e-05 | 0.00136 | 0.00116 | 6.54e-05 | 0.00153
295.65 K | 0.00149 | 0.000659 | 0.00213 | 6.94e-05 | 0.00148 | 0.00129 | 7.43e-05 | 0.0017
298.15 K | 0.00164 | 0.000741 | 0.00238 | 7.82e-05 | 0.00164 | 0.0014 | 8.45e-05 | 0.00186
300.65 K | 0.00174 | 0.000831 | 0.00269 | 8.74e-05 | 0.0018 | 0.00152 | 9.67e-05 | 0.00205
303.15 K | 0.0019 | 0.000914 | 0.00295 | 9.75e-05 | 0.00198 | 0.00166 | 0.00011 | 0.00223
305.65 K | 0.00201 | 0.000997 | 0.00334 | 0.000109 | 0.00218 | 0.00182 | 0.000126 | 0.00242
308.15 K | 0.00217 | 0.00111 | 0.00369 | 0.000122 | 0.00238 | 0.00201 | 0.000142 | 0.00264
310.65 K | 0.00229 | 0.00121 | 0.00408 | 0.000139 | 0.00258 | 0.00219 | 0.000163 | 0.00287
313.15 K | 0.00242 | 0.00133 | 0.00451 | 0.000157 | 0.00284 | 0.00248 | 0.000182 | 0.00309
